# Assay results published in patent US8722697B2, “Pharmaceutical composition for treating hypertension and metabolic syndrome and use thereof” (Lunan Pharmaceutical Group Corporation, priority 2008, dated 2014).
# Assays:
# [1] = tested on: spontaneously hypertensive rats; assay: Tail arterial blood pressure of conscious spontaneously hypertensive rats; type: in vivo, rat; conditions: X ± S, n = 8
# Method: (§1) Forty-eight spontaneously hypertensive rats (male, body weight (300±20) g, provided by Pharmacological Center for New Medicine of Shandong New Time Pharmaceutical Co., Ltd.) were fed for one week for acclimation, and then randomly divided into six groups with eight animals in each group.
# (§2) Model control group: intragastric administration of same volume of physiological saline;
# (§3) P group: 1 mg/(kg·d) of pioglitazone;
# (§4) A+R group: 2 mg/(kg·d) of amlodipine+1 mg/(kg·d) of rosuvastatin calcium;
# (§5) P+R group: 1 mg/(kg·d) of pioglitazone+1 mg/(kg·d) of rosuvastatin calcium;
# (§6) Pharmaceutical composition of the present invention: 2 mg/(kg·d) of amlodipine+1 mg/(kg·d) of pioglitazone+1 mg/(kg·d) of rosuvastatin calcium;
# (§7) Each group was given intragastric administration once every day for ten weeks. During the experiment, the diet, survival status and behaviors of the animals were recorded, and the animals were weighted once every day and the doses of administration were adjusted according to the body weights. Animals were sacrificed after ten weeks, and their hearts were taken out to determine the weights of left ventricles and calculate left ventricular indexes.
# Blood pressures were measured five times between two and five hours after intragastric administration in the first week, the third week and the sixth week, respectively. The average value of the blood pressures was used as the blood pressure of the sample.
# [2] = tested on: spontaneously hypertensive rats; assay: Carotid intima-media thickness in spontaneously hypertensive rats; type: in vivo, rat; conditions: carotid artery; intragastric once daily for six months, high sugar and high fat diets; X ± S, n = 8
# Method: Forty-eight spontaneously hypertensive rats (male, body weight (300±20) g, provided by the Pharmacological Center for New Medicine of Shandong New Time Pharmaceutical Co., Ltd.) were fed for one week for acclimation, and then randomly divided into six groups with eight rats in each group.
# as §2
# P group: intragastric administration of 2 mg/(kg·d) of pioglitazone;
# LA+R group: intragastric administration of 1 mg/(kg·d) of levo-amlodipine+1 mg/(kg·d) of rosuvastatin calcium;
# P+R group: intragastric administration of 2 mg/(kg·d) of pioglitazone+1 mg/(kg·d) of rosuvastatin calcium;
# LA group: intragastric administration of 1 mg/(kg·d) of levo-amlodipine;
# Pharmaceutical composition of the present invention: intragastric administration of 1 mg/(kg·d) of levo-amlodipine+2 mg/(kg·d) of pioglitazone+1 mg/(kg·d) of rosuvastatin calcium;
# Each group was given intragastric administration once every day and fed with high sugar and high fat diets for six months. During the experiment, the diet, survival status and behaviors of the animals were recorded, and the animals were weighed once every week and the doses of administration were adjusted according to the body weights.
# After the animal was anesthetized and fixed, Even's blue (60 mg/kg) dye was injected via a femoral artery. […]
# [3] = tested on: spontaneously hypertensive rats; assay: Urinary microalbumin (bromophenol blue absorbance) in spontaneously hypertensive rats; type: in vivo, rat; conditions: intragastric once daily, high sugar and high fat diets, doses per group b107-b111; twelve-hour overnight urine; week not stated; X ± S, n = 8
# Text: as §2
# [4] = tested on: patients suffered from metabolic syndrome; assay: Clinical treatment of patients suffered from metabolic syndrome; type: in vivo, human; conditions: X ± S
# Text: Eighty-eight metabolic syndrome patients were selected from those received treatment in Linyi People's Hospital from May 2007 to May 2008, and randomly divided into a control group and an experimental group.
# Control group: twenty-eight males and sixteen females, whose ages were between 62 and 71 and whose body mass indexes (BMI) were between 25.5 and 30;
# Experimental group: twenty-four males and twenty females, whose ages were between 60 and 70 and whose body mass indexes (BMI) were between 24.5 and 31;
# Before the treatment, all patients were subjected to blood lipids (including total cholesterol (TC), high-density lipid cholesterol (HDLC)) analysis, and detection of glycated hemoglobin (HbAlC), fasting blood glucose (FBG), fasting insulin (FINS) and fibrinogen (Fg).
# Patients suffered from metabolic syndrome were selected according to the diagnostic standards for type-II diabetes mellitus and hypertension made by WHO in 1999 and referring to the diagnostic standards for metabolic syndrome made by US National Cholesterol Education Program Adult Treatment Panel (NCEP-ATP III) in 2000, while cases of […], heart failure (above grade II), diseases in liver, kidney and blood system and like were excluded.
# Patients in the control group were administrated with 15 mg of pioglitazone once every day, and patients in the experimental group were administrated with 5 mg of amlodipine, 7.5 mg of pioglitazone and 5 mg of rosuvastatin calcium, i.e. the proportions as described in Example 1, once every day. After eight weeks of continuous treatment, all of the above parameters were re-determined, in which blood glucose was determined with hexokinase method, blood lipid was determined with esterase method, fibrinogen was determined with coagulation method and chromogenic substrate assay, HbAlC was determined with chromatography, and fasting insulin was determined with chemiluminescence immunoassay.
# Statistical analysis: SPSS software was employed, and test of significance was performed by using a paired sample t test.
# [5] = tested on: spontaneously hypertensive rats; assay: Cardiac hypertrophy (left ventricular weight/body weight) in spontaneously hypertensive rats; type: in vivo, rat; conditions: after ten weeks of intragastric administration once daily; X ± S, n = 8
# Method: as §1, §2, §3, §4, §5, §6, §7
# After being sacrificed with 10% potassium chloride (2 mmol/L, 1 ml/rat), the rats were weighed. […] The left ventricular was weighed after the atria were removed, and a ratio of left ventricular weight to body weight was calculated.
# calcium channel = conditions: background statement; cited from earlier work
# [6] = intragastric once daily, 2-5 h after administration
Compound,"Blood pressure, before treatment ([1]; baseline before treatment) [mmHg]","Blood pressure after treatment, first week [1, 6] [mmHg]","Blood pressure after treatment, sixth week [1, 6] [mmHg]","Blood pressure after treatment, third week [1, 6] [mmHg]",Maximum intima thickness [2] [mm],Ratio of intima to media thickness [2],"Urinary microalbumin, Absorbance A (600 nm) [3]","FINS (fasting insulin), after treatment ([4]; after eight weeks, once every day, chemiluminescence immunoassay) [mlU/L]","HbAlC (glycated hemoglobin), after treatment ([4]; after eight weeks, once every day, chromatography) [%]","Fg (fibrinogen), after treatment ([4]; after eight weeks, once every day, coagulation method and chromogenic substrate assay) [mg/dL]","FBG (fasting blood glucose), after treatment ([4]; after eight weeks, once every day, hexokinase method) [mmol/L]","FINS (fasting insulin), before treatment ([4]; baseline before treatment, chemiluminescence immunoassay) [mlU/L]","HbAlC (glycated hemoglobin), before treatment ([4]; baseline before treatment, chromatography) [%]","Fg (fibrinogen), before treatment ([4]; baseline before treatment, coagulation method and chromogenic substrate assay) [mg/dL]","FBG (fasting blood glucose), before treatment ([4]; baseline before treatment, hexokinase method) [mmol/L]",Left ventricular weight [5] [g],Left ventricular weight/body weight (×10^−3) [5],Activity relative to the dextroisomer (calcium channel) [times],Activity relative to the racemate (calcium channel)
"CCc1ccc(CCOc2ccc(CC3SC(=O)NC3=O)cc2)nc1 (stereo not shown) [P group, pioglitazone]",151 ± 7.6,157 ± 8.6,170 ± 8.8,162 ± 10.3,0.130 ± 0.026,2.246 ± 0.361,0.568 ± 0.125^•,25.68 ± 5.34,6.39 ± 0.56,392.6 ± 64.51,6.63 ± 1.65,32.4 ± 7.21,6.89 ± 0.65,419.6 ± 89.62,7.12 ± 2.06,0.99 ± 0.10,3.33 ± 0.19 ×10^−3,,
levo-amlodipine [A Group],,,,,,,,,,,,,,,,,,1000,twice as high as that of the racemate
